pIC50: −log10 of the molar value. Like-named read-outs stand apart in the source and are kept apart here.
Legend:
[1] = biological target: rAR (rat lens aldose reductase) (Rattus norvegicus, UniProt P07943); test: Assay for rAR inhibitory activity (NADPH absorption decrease at 340 nm, DL-glyceraldehyde substrate); format: biochemical; conditions: for rAR inhibitory activity (in words): isolated compound; for pIC50: read-out: IC50 on rAR (isolated compounds)
Procedure: Crude rAR was prepared as follows. Rat lenses were removed from closed male Sprague-Dawley rats weighing 250–280 g and frozen until required. The rat lens homogenate was prepared according to Hayman and Kinoshita with some modifications [20, 21]. […] The partially purified material was separated into 1.0 mL aliquots and stored at 40°C. rAR activity was assayed spectrophotometrically by measuring the decrease in NADPH absorption at 340 nm over a 4 min period with dl-glyceraldehyde substrate. Each 1.0 mL cuvette contained equal units of the enzyme, 0.10 M sodium phosphate buffer (pH 6.2), and 0.3 mM NADPH, with or without 10 mM substrate and an inhibitor [22, 23].

[2] = biological target: T1, rAR (aldose reductase) (Rattus norvegicus, UniProt P07943); test: HPLC microfractionation combined with 96-well enzyme assay for rAR inhibition; format: biochemical; conditions: HPLC microfractions of EtOAc soluble fraction (10 μL of 10 mg/mL injected), 96-well plate; hit limit 18.49%
T1 construct: The rat lens homogenate was prepared according to Hayman and Kinoshita with some modifications; from tissue; host or cells: rat lens (male Sprague-Dawley rats)
Procedure: An automated fraction collector (Foxy 200; ISCO, Lincoln, NE, USA) coupled with HPLC equipment (Thermo Electron Spectra HPLC system; Thermo Separation Products, San Jose, CA, USA) was used to separate and collect compounds from extracts directly into 96-well plates (Nunc, Roskilde, Denmark) at 0.4 mL/well (Figure 1). […] The mobile phase, consisting of acetonitrile (ACN) and 0.1% aqueous trifluoroacetic acid (TFA), was used at a flow rate of 0.8 mL/min. The gradient elution program was 7.5–26.5% B (0–20 min), 26.5% B (20–30 min), 26.5–36% B (30–40 min), and 36–100% B (40–45 min). Injection volume was 10 μL at sample concentration 10 mg/mL and detection wavelength 280 nm. After collection, all fractions were evaporated to dryness using an EZ-2 plus evaporator (Gene Vac Ltd., Ipswich, UK).
The effect on rAR inhibitory activity (%) was calculated as the change in absorbance in a sample well versus the change in absorbance in a blank well (average, n = 12). Spontaneous hydrolysis was subtracted from the reaction rate. The hit limit was set at 3 standard deviations (SD) from the minimum AR inhibitory activity. Z′-factor, signal-to-background ratio (S/B), and signal-to-noise ratio(S/N) were used to evaluate the quality of the test: Z′ = 1[(3 × SDs + 3 × SDb)/|X s X b|], S/B = X s/X b, and S/N = (X s X b)/(SDs ^2 + SDb ^2)^1/2; X s and SDs are average and standard deviation of the signal, that is, absorption detected at the 8th measurement point in blank wells (n = 12) after adding the enzyme; X b and SDb are average and SD of the background, that is, absorption at the first measurement point in blank wells (n = 12) after adding the enzyme.
Crude rAR was prepared as follows. Rat lenses were removed from […] male Sprague-Dawley rats weighing 250–280 g and frozen until required. The rat lens homogenate was prepared according to Hayman and Kinoshita with some modifications. A partially purified enzyme with a specific activity of 6.5 U/mg was routinely used to test enzyme inhibition. The partially purified material was separated into 1.0 mL aliquots and stored at […]. rAR activity was assayed spectrophotometrically by measuring the decrease in NADPH absorption at 340 nm over a 4 min period with dl-glyceraldehyde substrate. Each 1.0 mL cuvette contained equal units of the enzyme, 0.10 M sodium phosphate buffer (pH 6.2), and 0.3 mM NADPH, with or without 10 mM substrate and an inhibitor [22, 23].

| rAR inhibitory activity in the corresponding wells [2] [%] | pIC50 [1] | SMILES | rAR inhibitory activity (in words) [1] | pIC50 ([1]; concentration at 50% inhibition, crude rat lens AR, pH 6.2) |
| --- | --- | --- | --- | --- |
| 29.46 |  | O=c1cc(-c2ccc(O)c(O)c2)oc2cc(O)cc(O)c12 [Compound 5, luteolin] |  |  |
| 22.94 | 5.39 | COC(=O)[C@@H](Cc1ccc(O)c(O)c1)OC(=O)/C=C/c1ccc(O)c(O)c1 [Compound 6, methyl rosmarinic acid] |  |  |

The next lines start with the compound.

| SMILES | rAR inhibitory activity in the corresponding wells [2] [%] | pIC50 [1] | rAR inhibitory activity (in words) [1] | pIC50 ([1]; concentration at 50% inhibition, crude rat lens AR, pH 6.2) |
| --- | --- | --- | --- | --- |
| O=C(O)c1ccc(O)c(O)c1 [Compound 1, protocatechuic acid] | 20.46 |  | did not exhibit inhibitory activity |  |
| O=C(/C=C/c1ccc(O)c(O)c1)O[C@@H]1C[C@](O)(C(=O)O)C[C@@H](O)[C@H]1O [Compound 2, chlorogenic acid] | 34.50 | 5.50 |  |  |
| O=C(O)/C=C/c1ccc(O)c(O)c1 [Compound 3, caffeic acid] | 21.31 |  | weak inhibitory activity |  |
| O=C(/C=C/c1ccc(O)c(O)c1)O[C@H](Cc1ccc(O)c(O)c1)C(=O)O [Compound 4, rosmarinic acid] | 53.31 |  |  | 5.56 |

From publication PMC3838804, “Rapid Identification of Aldose Reductase Inhibitory Compounds from Perilla frutescens” (BioMed Research International, 2013)
